In brackets after ≈: the same amount, converted by molar mass. Activity calls are given as the source filed them. The calls are words filed in the database; no cut-off is given here.
What was measured:
[1] = Antifungal activity against Escovopsis at 37degC after 48 hrs by liquid culture assay; assay type: functional
[2] = system: Candida albicans; experiment: Antifungal activity against wild type Candida albicans at 37degC after 48 hrs by liquid culture assay; assay type: functional
[3] = system: Candida albicans; experiment: Antifungal activity against Candida albicans ATCC 200955 at 37degC after 48 hrs by liquid culture assay; assay type: functional; details: ATCC 200955, 48 h
[4] = system: Candida albicans; experiment: Antifungal activity against Candida albicans ATCC 10231 at 37degC after 48 hrs by liquid culture assay; assay type: functional; details: ATCC 10231, 48 h
[5] = system: Escovopsis; experiment: Antifungal activity against Escovopsis CC011120-4 assessed as growth inhibition at 5 mg/ml by plate antifungal assay; assay type: functional
[6] = system: ant fungal cultivar CC011120-4 (mutualistic fungus); experiment: Antifungal activity against ant fungal cultivar CC011120-4 assessed as growth inhibition at 5 mg/ml by plate antifungal assay

MIC [1]: 2800 nM (≈ 2.47 µg/mL)
MIC [2]: 1.1 µM (≈ 0.97 µg/mL)
MIC [3]: 1.1 µM (≈ 0.97 µg/mL)
MIC [4]: 1.1 µM (≈ 0.97 µg/mL)
SMILES: CCC[C@H]1CC[C@](O)([C@](C)(O)C(=O)N[C@@H]2C(=O)N3NCCC[C@@H]3C(=O)N(O)[C@@H](C)C(=O)N3NCCC[C@@H]3C(=O)N3NC[C@@H](O)C[C@H]3C(=O)N[C@@H](C)C(=O)O[C@H]2C(C)C)O[C@@H]1CC [DENTIGERUMYCIN]
growth inhibition (GI) [5]: Active
growth inhibition (GI) [6]: inactive
